In brackets after ≈: the same amount, converted by molar mass. Read-outs that look alike come from different tables or passages of the source. Marks after values point to notes of the source that are not given here. Starred links: 1 amine or outer side, 2 acyl side, 3 side chain; linkers in the order of their positions; H or OH if unused. Non-standard residues stand in square brackets, D forms with d. Residues, ends and D or L forms follow the SMILES beside them. Groups on a side chain read outwards from the residue. *: point of attachment. C18 diacid = O=C(O)CCCCCCCCCCCCCCCCC(=O)*; γGlu = O=C(O)[C@H](CCC(=O)[*:2])N[*:1]; AEEA = NCCOCCOCC(=O)O; Aib = CC(C)(N)C(=O)O
Assays:
[1] = test system: DIO mice (C57BL/6); test: Chronic treatment in DIO mice (body weight, fat, food intake); type: in vivo, mouse
Procedure: The effects on food intake and body weight/fat are evaluated in DIO mice. Five to six months old DIO mice (C57BL/6) from Taconic Biosciences are used in this study. Animals are individually housed in a temperature-controlled (24° C.) facility with a 12 hour light/dark cycle (lights on 6:00), and free access to food and water. The mice are acclimated to the facility for two weeks. The day before the study start, fat mass is measured by nuclear magnetic resonance (NMR) using an Echo Medical System (Houston, Tex.) instrument. The mice are randomized to treatment groups (N=7/group) based on body weight and fat mass so each group had similar starting mean body weight and fat mass. […] SC injections are made on Day 1, 4, 7, 10, and 13. Body weight and food intake are measured right before each injection throughout the study. Percent changes in body weight are calculated as follows: […]
At the completion of the study, total fat mass is measured again by NMR. Statistics are analyzed using ANOVA with Dunnett's comparison by JMP 6. Significance is denoted at p≤0.05 vs. vehicle.

[2] = Solubility (RP-HPLC and HPLC-SEC, 1 week at 4° C.); type: physicochemical
Procedure: Solubility of compounds of the present invention is measured in an Agilent 1100 HPLC, an Agilent 1200 HPLC and a Nanodrop 2000. The following HPLC columns are used:
(a) RP-HPLC: Waters Symmetry Shield C18, 3.6 um, 4.6×100 mm
(b) HPLC-SEC: Tosoh Biosciences, TSK2000SWXL […]
All peptide concentrations are made at 10 mg/mL in the following:
(a) 10 mM Tris pH 8.0+3 mg/mL m-cresol
(b) 10 mM Tris pH 8.0+3 mg/mL m-cresol+150 mM NaCl
(c) 10 mM Tris pH 8.0+3 mg/mL m-cresol+0.02% Tween-20
5 mL of 10 mg/mL peptide dissolved in 10 mM Tris at pH 8.0 is concentrated to approximately 20 mg/mL using Amicon-ultra 3 kDa MWCO devices. The solution is filtered using Millivex 0.22 μM filters (PVDF membrane) and the final concentration is measured by the NanoDrop spectrometer. This stock solution is used to formulate to the final conditions stated above using 3× m-cresol, 10× NaCl, and 100× Tween-20 stock solutions. A 10 mg/mL PBS solution is also prepared by dissolving directly at 5 mg/mL and concentrating using Amicon-ultra 3 kDa MWCO devices.
Each solution is placed in a refrigerator at 4° C. for 1 week, with analysis by RP-HPLC to assess concentration and HPLC-SEC to assess HMW species formation. Analyses completed at T-0 week and T-1 week.
The solubility of Compounds 1-4 was measured essentially as described in this assay.

[3] = molecular target: T1, hGLP-1-R (Homo sapiens, UniProt P43220); test: Functional hGLP-1-R assay (cAMP HTRF, HEK-293 clonal cell line); type: cell-based; design: expressed in transfected cells; host or cells: HEK-293 clonal cell line over-expressing the receptor
Procedure: (§1) After a 60 minute incubation at room temperature, the resulting increase in intracellular cAMP (adenosine 3′,5′-cyclic monophosphate) is quantitatively determined using the CisBio cAMP Dynamic 2 HTRF Assay Kit (62AM4PEJ). cAMP levels within the cell are detected by adding the cAMP-d2 conjugate in cell lysis buffer (20 μl) followed by the antibody anti-cAMP-Eu^3+-Cryptate, also in cell lysis buffer (20 μl).
(§2) A relative EC50 value and percent top (Emax) are derived by non-linear regression analysis using the percent maximal response vs. the concentration of peptide added, fitted to a four-parameter logistic equation (Genedata Screener®).
(§3) Means for EC50 are expressed as Geometric means±standard error of the mean (SEM) with the number of replicates (n) indicated in parenthesis. Means for Emax are expressed as the arithmetic mean±standard error. ND signifies that agonist activity was not detected.

[4] = molecular target: T1, hGLP-1-R; test: hGLP-1R Binding Assay (SPA radioligand competition, 293HEK membranes); design: expressed in transfected cells; host or cells: 293HEK, stably transfected with plasmid phD, Hygromycin-selected; crude plasma membranes; conditions: read-out: Ki, nM ± SEM at the hGLP-1-R
[5] = molecular target: T2, Human Gcg-R (Homo sapiens, UniProt P47871); test: Functional hGcg-R assay (cAMP HTRF, HEK-293 clonal cell line); type: cell-based
T2 construct: expressed in transfected cells; host or cells: HEK-293 clonal cell line over-expressing the receptor
Procedure: as §1, §2, §3

[6] = test system: DIO mice (C57BL/6); test: Acute treatment in DIO mice (PCSK9, FGF-21, cholesterol); type: in vivo, mouse; conditions: 30 nmol/kg sc, 16 hours post dose
Procedure: In order to investigate metabolic pathways involved with the treatment of compounds of the present invention independent of weight loss, compounds are tested in DIO mice (C57BL/6) acutely. The mice used are three to four months old on a high fat diet for at least 4 weeks. Animals are individually housed in a temperature-controlled (24° C.) facility with a 12 hour light/dark cycle (lights on 6:00), and free access to food and water. Vehicle or testing compounds were administered to mice by subcutaneous injection at 16:00 the day before the study day. Animals were sacrificed 16 hours later to collect blood via cardia puncture. Statistics are analyzed using ANOVA with Dunnett's comparison for JMP-6. Significance is denoted at p≤0.05 vs vehicle.
Food intake was decreased to a similar level in all treatment groups, which may indicate that changes in cholesterol, PCSK9 and FGF-21 are food-intake independent.

[7] = test system: DIO mice (C57BL/6); test: Glycemic control in DIO mice; type: in vivo, mouse; conditions: for Blood glucose (mg/dL) post-injection, Mean: male DIO mice, 25 nmol/kg sc once
Procedure: Five to six months old male DIO mice (C57BL/6) from Taconic Biosciences are used in this study. Animals are individually housed in a temperature-controlled (24° C.) facility with a 12 hour light/dark cycle (lights on 6:00), and free access to food and water. After two weeks acclimation to the facility, the mice are randomized to treatment groups (n=7/group) based on their body weight and blood glucose. Mice are injected subcutaneously once with vehicle or compounds (25 nmol/kg). Blood glucose is monitored 2 and 8 hours post-injection and then once a day at 08:00 for 4 days. OGTTs are performed at 44 and 78 hours post the peptide injection. Statistics are analyzed using ANOVA with Dunnett's comparison by JMP 6. Significance is denoted at p≤0.05 vs vehicle.

[8] = molecular target: hGcg-R (Homo sapiens, UniProt P47871); test: hGcg-R Binding Assay (SPA radioligand competition, 293HEK membranes); conditions: read-out: Ki, nM ± SEM at the hGcg-R
[9] = 15 nmol/kg sc every three days for 15 days
[10] = 30 nmol/kg sc every three days for 15 days

T1 sequence (P43220 24-463): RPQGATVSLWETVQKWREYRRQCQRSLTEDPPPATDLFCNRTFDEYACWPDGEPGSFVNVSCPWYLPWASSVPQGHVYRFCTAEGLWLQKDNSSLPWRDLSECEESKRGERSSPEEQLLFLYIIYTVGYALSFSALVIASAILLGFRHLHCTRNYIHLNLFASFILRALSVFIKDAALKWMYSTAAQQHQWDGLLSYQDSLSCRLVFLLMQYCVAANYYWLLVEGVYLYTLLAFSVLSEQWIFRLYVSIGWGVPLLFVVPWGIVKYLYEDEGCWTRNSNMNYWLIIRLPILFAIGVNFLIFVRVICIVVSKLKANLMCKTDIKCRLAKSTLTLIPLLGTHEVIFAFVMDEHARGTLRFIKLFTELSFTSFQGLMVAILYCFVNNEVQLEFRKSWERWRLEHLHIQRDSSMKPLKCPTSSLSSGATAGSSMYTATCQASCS
T2 sequence (P47871 26-477): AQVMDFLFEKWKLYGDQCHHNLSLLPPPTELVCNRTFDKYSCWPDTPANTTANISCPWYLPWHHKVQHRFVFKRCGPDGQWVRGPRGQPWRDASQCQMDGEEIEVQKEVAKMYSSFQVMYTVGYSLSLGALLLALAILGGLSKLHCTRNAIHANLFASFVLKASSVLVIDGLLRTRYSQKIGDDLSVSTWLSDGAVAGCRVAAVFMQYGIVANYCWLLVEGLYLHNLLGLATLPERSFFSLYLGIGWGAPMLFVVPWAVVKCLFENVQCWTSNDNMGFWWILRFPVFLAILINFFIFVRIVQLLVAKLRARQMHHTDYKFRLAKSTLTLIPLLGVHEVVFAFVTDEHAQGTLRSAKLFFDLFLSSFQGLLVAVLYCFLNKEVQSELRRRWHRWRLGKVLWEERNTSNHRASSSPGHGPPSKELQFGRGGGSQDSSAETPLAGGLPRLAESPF
Chain of hGcg-R (P47871 26-477): as above

CC(C)C[C@H](NC(=O)[C@H](CC(C)C)NC(=O)[C@H](Cc1c[nH]c2ccccc12)NC(=O)[C@H](CCC(=O)O)NC(=O)[C@@H](NC(=O)[C@H](Cc1ccccc1)NC(=O)[C@H](CCC(=O)O)NC(=O)[C@H](CCCCNC(=O)COCCOCCNC(=O)COCCOCCNC(=O)CC[C@H](NC(=O)CC[C@H](NC(=O)CCCCCCCCCCCCCCCCC(=O)O)C(=O)O)C(=O)O)NC(=O)[C@H](C)NC(=O)[C@H](CCCCN)NC(=O)[C@H](CCCCN)NC(=O)[C@H](CCC(=O)O)NC(=O)[C@H](CC(=O)O)NC(=O)[C@H](CC(C)C)NC(=O)[C@H](Cc1ccc(O)cc1)NC(=O)[C@H](CCCCN)NC(=O)[C@H](CO)NC(=O)[C@H](Cc1ccc(O)cc1)NC(=O)[C@H](CC(=O)O)NC(=O)[C@H](CO)NC(=O)[C@@H](NC(=O)[C@H](Cc1ccccc1)NC(=O)[C@@H](NC(=O)CNC(=O)[C@H](CCC(N)=O)NC(=O)C(C)(C)NC(=O)[C@@H](N)Cc1c[nH]cn1)[C@@H](C)O)[C@@H](C)O)C(C)C)C(=O)N[C@@H](CO)C(=O)NCC(=O)NCC(=O)N1CCC[C@H]1C(=O)N[C@@H](CO)C(=O)N[C@@H](CO)C(=O)NCC(N)=O [Compound 3] (H-H[Aib]QGTFTSDYSKYLDEKKAK([AEEA-AEEA-γGlu-γGlu-C18 diacid])EFVEWLLSGGPSSG-NH2; N-terminus assumed)
Body Fat (% change vs. vehicle from Day 1) [1, 9]: −32* %
Body Weight (% change vs. vehicle from Day 1) [1, 9]: −17* %
Body Fat (% change vs. vehicle from Day 1) [1, 10]: −67* %
Body Weight (% change vs. vehicle from Day 1) [1, 10]: −37* %
solubility at 1 week ([2]; 10 mM Tris pH 8.0 + 3 mg/mL m-cresol + 0.02% Tween-20, Tris pH 8 + 3 mg/mL m-cresol + 0.02% Tween-20): 10000 µg/mL
solubility at 1 week ([2]; 10 mM Tris pH 8.0 + 3 mg/mL m-cresol + 150 mM NaCl, Tris pH 8 + 3 mg/mL m-cresol + 150 mm NaCl): 10000 µg/mL
solubility at 1 week ([2]; 10 mM Tris pH 8.0 + 3 mg/mL m-cresol, Tris pH 8 + 3 mg/mL m-cresol): 10000 µg/mL
HMW species formation by SEC-HPLC ([2]; 1 week at 4° C.): No observed HMW species formation by SEC-HPLC;
solubility at 1 week ([2]; PBS pH 7.4, pH 7.4, read-out: solubility in PBS, pH 7.4): 10000 µg/mL (≈ 2160 µM)
visible precipitation or phase separation ([2]; after 1 week storage at 4° C.): No visible precipitation or phase separation observed after 1 week
Emax ([3]; HEK293): 105 ± 5%
EC50 ([3]; cAMP, 60 minute incubation, 0.25% FBS, 0.05% BSA, geometric mean, read-out: Human GLP-1-R EC50, nM ± SEM (n)): 34.3 ± 9.4 nM
Ki [4]: 8.68 ± 1.6 nM
Emax ([5]; HEK293): 104 ± 5%
EC50 ([5]; cAMP, 60 minute incubation, 0.25% FBS, 0.05% BSA, geometric mean, read-out: Human Gcg-R EC50, nM ± SEM, (n)): 15.3 ± 2.2 nM
Cholesterol (% of vehicle) [6]: 55.6* % of vehicle
FGF-21 (% of vehicle) [6]: 1124* % of vehicle
PCSK9 (% of vehicle) [6]: 15.6* % of vehicle
44 hours Glucose AUC (% of Vehicle) ([7]; OGTT 44 hours post-injection, 25 nmol/kg sc): 35* % of Vehicle
78 hours Glucose AUC (% of Vehicle) ([7]; OGTT 78 hours post-injection, 25 nmol/kg sc): 76* % of Vehicle
glucose excursions post an oral glucose challenge ([7]; OGTTs at 44 and 78 hours post injection, 25 nmol/kg): lower glucose excursions post an oral glucose challenge at 44 hour
Blood glucose (mg/dL) post-injection, Mean ([7]; 2 hours post-injection): 173.4 mg/dL
Blood glucose (mg/dL) post-injection, Mean ([7]; 8 hours post-injection): 81.4 mg/dL
Blood glucose (mg/dL) post-injection, Mean ([7]; 24 hours post-injection): 96.6 mg/dL
Blood glucose (mg/dL) post-injection, Mean ([7]; 48 hours post-injection): 95.8 mg/dL
Blood glucose (mg/dL) post-injection, Mean ([7]; 72 hours post-injection): 104.7 mg/dL
Blood glucose (mg/dL) post-injection, Mean ([7]; 96 hours post-injection): 141.1 mg/dL
Ki [8]: 37.3 ± 4.2 nM
